Measured values: patent US5464617A, “β-lactam compounds” (Hoffmann-La Roche Inc., priority 1994, dated 1995)
Converted amounts (≈) assume the structure as drawn. Counter-ions that a name gives are not always drawn.

Columns and labels:
[1] = tested on: Citrobacter freundii 1982; assay: MIC in vitro of a 1:4 combination of ceftriaxone with a compound of formula I (Test D); type: cell-based; details: for MIC C. freundii 1982 (D): test D; for MIC C. freundii 1982: Table 2
Method: The minimum inhibitory concentration in vitro ([…]) of a 1:4 combination of ceftriaxone with a compound of formula I against Citrobacter freundii 1982 was measured and compiled in Table 2 hereinafter.

E. coli 1346 = assay: Antibacterial activity of the products per se, serial dilution method in liquid medium (Test E); type: cell-based; details: product per se; for MIC E. coli 1346 (E): test E; for MIC E. coli 1346: Table 3, liquid medium
Excerpt: The antibacterial activity of the products per se is illustrated on the basis of Table 3 hereinafter, the minimum inhibitory concentration […] in vitro against E. coli 1346 being determined using the serial dilution method in liquid medium: […]

[2] = Table 4, 1:4 combination of ceftriaxone with the compound
[3] = 1:4 combination of ceftriaxone with the compound
[4] = Table 5, particularly preferred products, 1:4 combination with ceftriaxone
[5] = Table 5, particularly preferred products

| Compound | MIC C. freundii 1982 (D) [1, 2] | MIC E. coli 1346 (E) (E. coli 1346; Table 4) | further results |
| --- | --- | --- | --- |
| C=CC1=C(C(=O)O)N2C(=O)[C@@H]3[C@H]2[C@H](C1)CN3C(=O)Nc1ccc(O)cc1 [46(a), (1aS,3aR,6bR)-2-(4-Hydroxy-phenylcarbamoyl)-1-oxo-5-vinyl-1a,2,3,3a,4,6b-hexahydro-1H-2,6a-diazacyclobut[cd]indene-6-carboxylic acid sodium salt] | 1 µg/mL | 64 µg/mL | – |
| COc1cc(CNC(=O)N2C[C@H]3CC(Sc4nnnn4C)=C(C(=O)O)N4C(=O)[C@@H]2[C@@H]34)on1 [3(h), (1aS,3aR,6bR)-2-(3-Methoxy-isoxazol-5-ylmethylcarbamoyl)-5-(1-methyl-1H-tetrazol-5-ylsulphanyl)-1-oxo-1a,2,3,3a,4,6b-hexahydro-1H-2,6a-diazacyclobut[cd]indene-6-carboxylic acid sodium salt] | – | – | MIC C. freundii 1982 [1, 3]: 2 µg/mL; MIC E. coli 1346 (E. coli 1346): 16 µg/mL |
| CC(=O)N1C[C@H]2CC(CSc3ncccn3)=C(C(=O)O)N3C(=O)[C@@H]1[C@@H]23 [72(a), (1aS,3aR,6bR)-2-Acetyl-1-oxo-5-(pyrimidin-2-ylsulphanylmethyl)-1a,2,3,3a,4,6b-hexahydro-1H-2,6a-diazacyclobut[cd]indene-6-carboxylic acid sodium salt] | 4 µg/mL | 2 µg/mL | – |
| NC(=O)OCC1=C(C(=O)O)N2C(=O)[C@@H]3[C@H]2[C@H](C1)CN3C(=O)Nc1ccc(C(N)=O)cc1 [27(b), (1aS,3aR,6bR)-5-Carbamoyloxymethyl-2-(4-carbamoylphenylcarbamoyl)-1-oxo-1a,2,3,3a,4,6b-hexahydro-1H-2,6a-diazacyclobut[cd]indene-6-carboxylic acid sodium salt] | – | – | MIC C. freundii 1982 (D) [1, 4]: ≤ 0.06 µg/mL; MIC E. coli 1346 (E) (E. coli 1346; [5]): > 32 µg/mL |
| O=C(O)C1=C(CSc2ccncc2)O[C@@H]2CN(C(=O)Nc3ccc(O)cc3)[C@@H]3C(=O)N1[C@@H]32 [31(d), (1aS,3aR,6bS)-2-(4-Hydroxy-phenylcarbamoyl)-1-oxo-5-(pyridin-4-ylsulphanylmethyl)-1,1a,2,3,3a,6b-hexahydro-4-oxa-2,6a-diazacyclobut[cd]indene-6-carboxylicacid sodium salt] | 1 µg/mL | > 32 µg/mL | – |
| CCN1C[C@H]2CC(COC(N)=O)=C(C(=O)O)N3C(=O)[C@@H]1[C@@H]23 [59(c), (1aS,3aR,6bR)-5-Carbamoyloxylmethyl-2-ethyl-1-oxo-1a,2,3,3a,4,6b-hexahydro-1H-2,6a-diazacyclobut[cd]indene-6-carboxylic acid sodium salt] | 2 µg/mL | 8 µg/mL | – |
| CC(=O)N1C[C@H]2OC(CSc3nnnn3C)=C(C(=O)O)N3C(=O)[C@@H]1[C@@H]23 [Example 35, (1aS,3aR,6bS)-2-Acetyl-5-(1-methyl-1H-tetrazol-5-yl-sulphanylmethyl)-1-oxo-1,1a,2,3,3a,6b-hexahydro-4-oxa-2,6 a-diazacyclobut[cd]indene-6-carboxylic acid sodium salt] | – | – | MIC C. freundii 1982 (D) [1, 4]: 1 µg/mL; MIC E. coli 1346 (E) (E. coli 1346; [5]): 0.5 µg/mL |
| CS(=O)(=O)OC1=C(C(=O)O)N2C(=O)[C@@H]3[C@H]2[C@H](C1)CN3C(=O)Nc1ccc(C(N)=O)cc1 [9(b), (1aS,3aR,6bR)-2-(4-Carbamoyl-phenylcarbamoyl)-5-methylsulphonyloxy-1-oxo-1a, 2,3,3a,4,6b-hexahydro-1H-2,6a-diazacyclobut[cd]indene-6-carboxylic acid sodium salt] | – | – | MIC C. freundii 1982 [1, 3]: 0.25 µg/mL; MIC E. coli 1346 (E. coli 1346): 0.5 µg/mL |
| NC(=O)OCC1=C(C(=O)O)N2C(=O)[C@@H]3[C@H]2[C@H](C1)CN3C(=O)NCc1ccc(O)cc1 [27(h), (1aS,3aR,6bR)-5-Carbamoyloxymethyl-2-(4-hydroxybenzylcarbamoyl)-1-oxo-1a,2,3,3a,4,6b-hexahydro-1H-2,6a-diaza-cyclobut[cd]indene-6-carboxylic acid sodium salt] | 0.25 µg/mL | > 32 µg/mL | – |
| CC(=O)N1C[C@H]2SC(CSc3ccncc3)=C(C(=O)O)N3C(=O)[C@@H]1[C@@H]23 [42(b), (1aS,3aR,6bS)-2-Acetyl-1-oxo-5-(pyridin-4-ylsulphanylmethyl)-4-thia-1,1a,2,3,3a,6b-hexahydro-2,6a-diazacyclobut[cd]indene-6-carboxylic acid sodium salt] | 2 µg/mL | 0.5 µg/mL | – |

Second part, led by results:

| MIC C. freundii 1982 (D) [1, 2] | MIC E. coli 1346 (E) (E. coli 1346; Table 4) | Compound | further results |
| --- | --- | --- | --- |
| 8 µg/mL | 4 µg/mL (≈ 9.58 µM) | Cc1cc(SCC2=C(C(=O)O)N3C(=O)[C@H]4NC[C@@H](O2)[C@H]43)n2nc(C(N)=O)nc2n1 [Example 29(d), (1aS,3aR,6bS)-5-(2-Carbamoyl-5-methyl[1,2,4]triazolo-[1,5-a]pyrimidin-7-ylsulphanylmethyl)-1-oxo-1,1a,2,3,3a,6b-hexahydro-4-oxa-2,6a-diazacydobut[cd]indene-6-carboxylic acid] | – |
| 4 µg/mL | 0.5 µg/mL | CC(=O)N1C[C@H]2CC(CSc3nnnn3CC(=O)NCCc3ccccc3)=C(C(=O)O)N3C(=O)[C@@H]1[C@@H]23 [80(a), (1aS,3aR,6bR)-2-Acetyl-1-oxo-5-[1-(phenethylcarbamoylmethyl)-1H-tetrazol-5-ylsulphanylmethyl]-1a,2,3,3a,4,6b-hexahydro-1H-2,6a-diazacyclobut[cd]indene-6-carboxylic acid sodium salt] | – |
| 0.25 µg/mL | > 32 µg/mL | NC(=O)OCC1=C(C(=O)O)N2C(=O)[C@@H]3[C@H]2[C@H](C1)CN3C(=O)NCc1ccccc1 [Example 27(c), (1aS,3aR,6bR)-2-Benzylcarbamoyl-5-carbamoyloxymethyl-1-oxo-1a,2,3,3a,4,6b-hexahydro-1H-2,6a-diazacyclobut[cd]indene-6-carboxylic acid sodium salt] | – |
| 4 µg/mL | 2 µg/mL | O=C(Cn1nnnc1SCC1=C(C(=O)O)N2C(=O)[C@H]3NC[C@@H](C1)[C@H]32)NCCc1ccccc1 [Example 79, (1aS,3aR,6bR)-1-Oxo-5-[1-(phenethylcarbamoylmethyl)-1H-tetrazol-5-ylsulphanylmethyl]-1a,2,3,3a,4,6b-hexahydro-1H-2,6a-diazacyclobut[cd]indene-6-carboxylic acid trifluoroacetate] | – |
| 16 µg/mL | 32 µg/mL | Cn1nnnc1SC1=C(C(=O)O)N2C(=O)[C@@H]3[C@H]2[C@H](C1)CN3C(=O)C(F)(F)F [Example 3(ab), (1aS,3aR,6bR)-5-(1-Methyl-1H-tetrazol-5-ylsulphanyl)-1-oxo-2-trifluoroacetyl-1a,2,3,3a,4,6b-hexahydro-1H-2,6a-diazacyclobut[cd]indene-6-carboxylic acid sodium salt] | – |
| 0.5 µg/mL | 2 µg/mL | NC(=O)CNC(=O)OCC1=C(C(=O)O)N2C(=O)[C@@H]3[C@H]2[C@H](C1)CN3C(=O)C(F)(F)F [96(b), (1aS,3aR,6bR) 5-Carbamoylmethylcarbamoyloxymethyl-1-oxo-2-trifluoroacetyl-1a,2,3,3a,4,6b-hexahydro-1H-2,6a-diazacyclobut[cd]indene-6-carboxylic acid sodium salt] | – |
